Source: PubChem BioAssay AID1963869 (Molecular Pharmacology Branch, DTP, NCI, 2024)

Tested on: KRAS patient-derived spheroids with HUVEC/MSC, viability
Assay: Anticancer human tumor 323965-272-R-J2-PDC patient-derived pancreatic carcinoma cell line growth inhibition [KRAS2]
Details: for IC50: curve of first compound; for viability, T/C: stronger effect = lower value
Procedure, shortened: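 KRAS-mutant tumor cells were grown as spheroids with HUVEC endothelial cells and human MSCs as stroma. Targeted agents were tested alone and with KRAS pathway inhibitors. Doses started at or near clinical Cmax, or 10 microM, descending half-log.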

[1] = second compound 0.1 µM, first compound 0.00316 µM
[2] = second compound 0.1 µM, first compound 0.01 µM
[3] = second compound 0.1 µM, first compound 0.0316 µM
[4] = second compound 0.1 µM, first compound 0.1 µM
[5] = second compound 0.1 µM, first compound 0.316 µM
[6] = second compound 0.1 µM, first compound 1 µM
[7] = second compound 0.316 µM, first compound 0.00316 µM
[8] = second compound 0.316 µM, first compound 0.01 µM
[9] = second compound 0.316 µM, first compound 0.0316 µM
[10] = second compound 0.316 µM, first compound 0.1 µM
[11] = second compound 0.316 µM, first compound 0.316 µM
[12] = second compound 0.316 µM, first compound 1 µM
[13] = second compound 1 µM, first compound 0.00316 µM
[14] = second compound 1 µM, first compound 0.01 µM
[15] = second compound 1 µM, first compound 0.0316 µM
[16] = second compound 1 µM, first compound 0.1 µM
[17] = second compound 1 µM, first compound 0.316 µM
[18] = second compound 1 µM, first compound 1 µM
[19] = second compound 3.16 µM, first compound 0.00316 µM
[20] = second compound 3.16 µM, first compound 0.01 µM
[21] = second compound 3.16 µM, first compound 0.0316 µM
[22] = second compound 3.16 µM, first compound 0.1 µM
[23] = second compound 3.16 µM, first compound 0.316 µM
[24] = second compound 3.16 µM, first compound 1 µM
[25] = second compound 10 µM, first compound 0.00316 µM
[26] = second compound 10 µM, first compound 0.01 µM
[27] = second compound 10 µM, first compound 0.0316 µM
[28] = second compound 10 µM, first compound 0.1 µM
[29] = second compound 10 µM, first compound 0.316 µM
[30] = second compound 10 µM, first compound 1 µM
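Also: spheroids exposed to agents for 7 days.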
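For viability, T/C in this document: 100% = DMSO vehicle control viability.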

With `CCN1CCN(Cc2ccc(Nc3ncc(F)c(-c4cc(F)c5nc(C)n(C(C)C)c5c4)n3)nc2)CC1` + COc1cc2nc(C)nc(NC(C)c3cc(N)cc(C(F)(F)F)c3)c2cc1OC1CCOC1 the IC50 (second compound 0.1 µM) was 90.2 nM, the IC50 (second compound 0.316 µM) was 25.9 nM and the IC50 (second compound 1 µM) was 32.6 nM. For the same compound, the IC50 (second compound 3.16 µM) was 21.9 nM, the IC50 (second compound 10 µM) was 75.6 nM and the viability, T/C [1] was 85.5%. It also gave a viability, T/C [2] of 78.3%, a viability, T/C [3] of 59.5% and a viability, T/C [4] of 48.2%. The viability, T/C [5] was 44.4%, the viability, T/C [6] was 51.4% and the viability, T/C [7] was 75.2%. It also gave a viability, T/C [8] of 59%, a viability, T/C [9] of 50% and a viability, T/C [10] of 41.7%. It also gave a viability, T/C [11] of 37.8%, a viability, T/C [12] of 48.3% and a viability, T/C [13] of 65.7%. It also gave a viability, T/C [14] of 59.9%, a viability, T/C [15] of 51.4% and a viability, T/C [16] of 42.9%. The viability, T/C [17] was 41%, the viability, T/C [18] was 48.3% and the viability, T/C [19] was 85.2%. For the same compound, the viability, T/C [20] was 64%, the viability, T/C [21] was 43.8% and the viability, T/C [22] was 39.1%. For the same compound, the viability, T/C [23] was 32.7%, the viability, T/C [24] was 49.5% and the viability, T/C [25] was 86.6%. For the same compound, the viability, T/C [26] was 74%, the viability, T/C [27] was 53.4% and the viability, T/C [28] was 48.7%. For the same compound, the viability, T/C [29] was 39.9% and the viability, T/C [30] was 22.4%.
Compound `CCNC(=O)CC1N=C(c2ccc(Cl)cc2)c2cc(OC)ccc2-n2c(C)nnc21` (stereo not given) + COc1cc2nc(C)nc(NC(C)c3cc(N)cc(C(F)(F)F)c3)c2cc1OC1CCOC1 has an IC50 (second compound 0.1 µM) of 247 nM, an IC50 (second compound 0.316 µM) of 246 nM and an IC50 (second compound 1 µM) of 238 nM. The IC50 (second compound 3.16 µM) was 189 nM, the IC50 (second compound 10 µM) was 170 nM and the viability, T/C [3] was 80.3%. It also gave a viability, T/C [4] of 68.8%, a viability, T/C [5] of 44.2% and a viability, T/C [6] of 34.2%. The viability, T/C (second compound 0.1 µM, first compound 3.16 µM) was 30.3%, the viability, T/C (second compound 0.1 µM, first compound 10 µM) was 28.9% and the viability, T/C [9] was 69.8%. It also gave a viability, T/C [10] of 64.2%, a viability, T/C [11] of 45.4% and a viability, T/C [12] of 32.5%. The viability, T/C (second compound 0.316 µM, first compound 3.16 µM) was 26.8%, the viability, T/C (second compound 0.316 µM, first compound 10 µM) was 25.2% and the viability, T/C [15] was 76.3%. For the same compound, the viability, T/C [16] was 65.3%, the viability, T/C [17] was 44.8% and the viability, T/C [18] was 32%. The viability, T/C (second compound 1 µM, first compound 3.16 µM) was 30.2%, the viability, T/C (second compound 1 µM, first compound 10 µM) was 25.5% and the viability, T/C [21] was 74.5%. It also gave a viability, T/C [22] of 58.8%, a viability, T/C [23] of 43.9% and a viability, T/C [24] of 29.3%. It also gave a viability, T/C (second compound 3.16 µM, first compound 3.16 µM) of 26.2%, a viability, T/C (second compound 3.16 µM, first compound 10 µM) of 26.6% and a viability, T/C [27] of 72.8%. It also gave a viability, T/C [28] of 60.4%, a viability, T/C [29] of 37.7% and a viability, T/C [30] of 29%. The viability, T/C (second compound 10 µM, first compound 3.16 µM) was 28% and the viability, T/C (second compound 10 µM, first compound 10 µM) was 25.7%.
`Cn1ncnc1[C@H]1c2n[nH]c(=O)c3cc(F)cc(c23)N[C@@H]1c1ccc(F)cc1` + COc1cc2nc(C)nc(NC(C)c3cc(N)cc(C(F)(F)F)c3)c2cc1OC1CCOC1 showed an IC50 (second compound 0.1 µM) greater than 100 nM, an IC50 (second compound 0.316 µM) greater than 100 nM and an IC50 (second compound 1 µM) greater than 100 nM. The IC50 (second compound 3.16 µM) was greater than 100 nM, the IC50 (second compound 10 µM) was greater than 100 nM and the viability, T/C (second compound 0.1 µM, first compound 0.000316 µM) was 85.1%. For the same compound, the viability, T/C (second compound 0.1 µM, first compound 0.001 µM) was 82.1%, the viability, T/C [1] was 86.3% and the viability, T/C [2] was 73.6%. For the same compound, the viability, T/C [3] was 76%, the viability, T/C [4] was 70% and the viability, T/C (second compound 0.316 µM, first compound 0.000316 µM) was 79.1%. For the same compound, the viability, T/C (second compound 0.316 µM, first compound 0.001 µM) was 81.4%, the viability, T/C [7] was 71.9% and the viability, T/C [8] was 74.9%. The viability, T/C [9] was 65.2%, the viability, T/C [10] was 61.5% and the viability, T/C (second compound 1 µM, first compound 0.000316 µM) was 73.3%. For the same compound, the viability, T/C (second compound 1 µM, first compound 0.001 µM) was 80.5%, the viability, T/C [13] was 69% and the viability, T/C [14] was 67.2%. It also gave a viability, T/C [15] of 63.8%, a viability, T/C [16] of 58.1% and a viability, T/C (second compound 3.16 µM, first compound 0.000316 µM) of 79.8%. It also gave a viability, T/C (second compound 3.16 µM, first compound 0.001 µM) of 71.6%, a viability, T/C [19] of 69.6% and a viability, T/C [20] of 64.4%. It also gave a viability, T/C [21] of 65.2%, a viability, T/C [22] of 61% and a viability, T/C (second compound 10 µM, first compound 0.000316 µM) of 75.1%. For the same compound, the viability, T/C (second compound 10 µM, first compound 0.001 µM) was 79.8%, the viability, T/C [25] was 76.8% and the viability, T/C [26] was 78.4%. The viability, T/C [27] was 67% and the viability, T/C [28] was 62.4%.
